Experimental data from ChEMBL document CHEMBL5356966, “A dual mechanism with H2S inhibition and membrane damage of morusin from Morus alba Linn. against MDR-MRSA” (2024).
Converted amounts (≈) assume the structure as drawn. The source made the active and inactive calls. The calls are words filed in the database; no cut-off is given here.

Columns and labels:
Staphylococcus aureus [1] = test: Antibacterial activity methicillin-resistant Staphylococcus aureus 011 assessed as inhibition of bacterial growth incubated for 24 hrs by CLSI based analysis; type: functional
Staphylococcus aureus [2] = test: Antibacterial activity methicillin-resistant Staphylococcus aureus 003 assessed as inhibition of bacterial growth incubated for 24 hrs by CLSI based analysis; type: functional
Staphylococcus aureus [3] = test: Antibacterial activity Staphylococcus aureus assessed as inhibition of bacterial growth incubated for 24 hrs by CLSI based analysis; type: functional
Enterococcus = test: Antibacterial activity vancomycin-resistant Enterococcus assessed as inhibition of bacterial growth incubated for 24 hrs by CLSI based analysis; type: functional
Cell membrane = test: Disruption of bacterial cell membrane in methicilin-resistant Staphylococcus aureus 003 assessed as increase in green fluorescence intensity incubated for 1 hr by DAPI/PI staning based confocal laser microscopic analysis
Escherichia coli = test: Antibacterial activity Escherichia coli assessed as inhibition of bacterial growth incubated for 24 hrs by CLSI based analysis; type: functional
Acinetobacter baumannii = test: Antibacterial activity Acinetobacter baumannii assessed as inhibition of bacterial growth incubated for 24 hrs by CLSI based analysis; type: functional
Staphylococcus aureus [4] = test: Antibacterial activity methicillin-resistant Staphylococcus aureus 003 assessed as inhibition of H2S production at 50 uM; type: functional

## COc1cccc(OC)c1C(=O)N[C@@H]1C(=O)N2[C@@H]1SC(C)(C)[C@@H]2C(=O)[O-].[Na+]
Staphylococcus aureus [1]
  MIC: > 128 µg/mL
Staphylococcus aureus [2]
  MIC: > 128 µg/mL
Staphylococcus aureus [3]
  MIC: 1 µg/mL
Enterococcus
  MIC: 32 µg/mL

## C[C@@H](O)[C@H]1C(=O)N2C(C(=O)O)=C(S[C@@H]3CN[C@H](C(=O)N(C)C)C3)[C@H](C)[C@H]12 [MEROPENEM]
Staphylococcus aureus [1]
  MIC: > 128 µg/mL
Staphylococcus aureus [2]
  MIC: > 128 µg/mL
Staphylococcus aureus [3]
  MIC: 2 µg/mL (≈ 5.22 µM)
Enterococcus
  MIC: 8 µg/mL (≈ 20.9 µM)
Cell membrane
  Activity: Active

## CC(C)CCCCC(=O)N[C@@H](CCN)C(=O)N[C@H](C(=O)N[C@@H](CCN)C(=O)N[C@H]1CCNC(=O)[C@H]([C@@H](C)O)NC(=O)[C@H](CCN)NC(=O)[C@H](CCN)NC(=O)[C@H](CC(C)C)NC(=O)[C@@H](Cc2ccccc2)NC(=O)[C@@H](CCN)NC1=O)[C@@H](C)O.O=S(=O)(O)O
Staphylococcus aureus [1]
  MIC: 16 µg/mL
Staphylococcus aureus [2]
  MIC: 16 µg/mL
Staphylococcus aureus [3]
  MIC: 8 µg/mL
Enterococcus
  MIC: 128 µg/mL
Escherichia coli
  MIC: 0.25 µg/mL
Acinetobacter baumannii
  MIC: 1 µg/mL

## NOCC(=O)O [CARBOXYMETHOXYLAMINE]
Staphylococcus aureus [4]
  inhibition at 50 µM: 30%
